Assay [1] deals with T1, androgen receptor (adenovirus AdEasy+rAR in L929 cells) (Rattus norvegicus, UniProt P15207).
T1 construct: expressed in transfected cells
T1 sequence (P15207 1-902): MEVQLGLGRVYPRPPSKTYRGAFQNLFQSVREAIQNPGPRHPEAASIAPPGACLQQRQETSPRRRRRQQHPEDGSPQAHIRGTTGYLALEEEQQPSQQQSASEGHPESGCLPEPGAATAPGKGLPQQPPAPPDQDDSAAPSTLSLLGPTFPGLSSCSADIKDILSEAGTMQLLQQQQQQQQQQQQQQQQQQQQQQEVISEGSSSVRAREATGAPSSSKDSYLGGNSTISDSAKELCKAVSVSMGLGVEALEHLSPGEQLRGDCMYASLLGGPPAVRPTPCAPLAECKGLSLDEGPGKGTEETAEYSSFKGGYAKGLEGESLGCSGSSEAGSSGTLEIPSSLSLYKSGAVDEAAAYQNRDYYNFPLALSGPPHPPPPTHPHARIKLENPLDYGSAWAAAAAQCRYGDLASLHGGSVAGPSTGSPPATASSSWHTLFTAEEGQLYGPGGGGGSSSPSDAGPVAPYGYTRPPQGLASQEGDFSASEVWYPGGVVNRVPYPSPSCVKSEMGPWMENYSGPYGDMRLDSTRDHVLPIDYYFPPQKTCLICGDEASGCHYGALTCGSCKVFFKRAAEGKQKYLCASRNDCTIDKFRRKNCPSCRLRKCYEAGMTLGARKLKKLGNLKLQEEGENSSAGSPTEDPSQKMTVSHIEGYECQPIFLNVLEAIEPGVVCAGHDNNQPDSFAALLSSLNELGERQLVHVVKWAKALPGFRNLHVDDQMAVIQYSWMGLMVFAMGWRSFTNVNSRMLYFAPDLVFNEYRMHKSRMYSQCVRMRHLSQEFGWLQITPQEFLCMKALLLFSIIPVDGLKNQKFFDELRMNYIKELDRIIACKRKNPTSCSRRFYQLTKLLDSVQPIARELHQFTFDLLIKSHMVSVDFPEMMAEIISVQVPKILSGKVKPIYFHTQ
The assay can be described thus: L929 Androgen Receptor Functional Assay, Adenovirus Transduction. As to conditions: 3000 nM; for % Activity: L929 agonist testing; for % Inhibition: L929 antagonist testing with R1881. Type of assay: cell-based. Summed up: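 L929 cells in phenol red-free, charcoal-stripped serum medium transduced with AdEasy+rAR (moi 1:500) and exposed 48 h at 37 °C to compound alone (agonist mode) or with R1881 (antagonist mode; 2.5 nM as the 2.5× dilution).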

Assay [2] concerns testosterone-enhanced ventral prostate and seminal vesicle weights in castrated male Sprague Dawley rats. Nature of the assay: Ventral Prostate and Seminal Vesicle Weight In Vivo Assay. More on the design: species or system rat. As to conditions: immature castrated rats; once daily for five days, usually orally at 40 mg/kg, with testosterone propionate 2 mg/kg s.c. Summed up: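 Immature (~50 g) castrated Sprague Dawley rats dosed once daily for five days with compound (usually oral, 40 mg/kg, cyclodextrin or methylcellulose vehicle) plus testosterone propionate 2 mg/kg s.c. Wet ventral prostate and seminal vesicle weights taken on day six; activity judged by prostate weight or body-weight-adjusted % inhibition.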

Structures are written as SMILES.

These results are taken from patent US8394971B2, “Indole derivatives as selective androgen receptor modulators (SARMS)” (Janssen Pharmaceutica N.V., priority 2004, dated 2013).

The % Inhibition is the drop in the measured response relative to a control, in per cent. With `COc1ccc(S(=O)(=O)CC(C)(O)c2cc3cc(Cl)c(C(F)(F)F)cc3[nH]2)cc1` (racemic) [compound 129], in assay [1], the “% Activity” value is recorded as −5% and the “% Inhibition” value is −8%. Moreover, the “active / inactive (inhibition of testosterone-enhanced prostate weight)” value in assay [2] is “inactive”.

In the case of `CC(O)(C[S+]([O-])Cc1ccccc1)c1cc2cc([N+](=O)[O-])c(C(F)(F)F)cc2[nH]1` (mixture of isomers) [compound 161], the “% Activity” value in assay [1] amounted to 2%. Moreover, the “active / inactive (inhibition of testosterone-enhanced prostate weight)” value in assay [2] is “inactive”.

On to `CSCCC(C)(O)c1cc2cc([N+](=O)[O-])c(C(F)(F)F)cc2[nH]1` (racemic) [compound 47], for which, in assay [1], the “% Activity” value is listed as 2% and the “% Inhibition” value stood at 75%. For the same molecule, the “active / inactive (inhibition of testosterone-enhanced prostate weight)” value in assay [2] is “inactive”.

`CC(C)CSCC(C)(O)c1cc2cc([N+](=O)[O-])c(C(F)(F)F)cc2[nH]1` (racemic) [compound 170]: in assay [1], the “% Activity” value stood at 2% and the “% Inhibition” value is reported as 67%. Further, the “active / inactive (inhibition of testosterone-enhanced prostate weight)” value in assay [2] is reported as “active”.

On to `COc1ccc(SCC(C)(O)c2cc3cc(Cl)c(C(F)(F)F)cc3n2S(C)(=O)=O)cc1` (racemic) [compound 130], for which, in assay [1], the “% Activity” value is recorded as −5%.
